Assay results reported in the NIST ThermoML archive (doi:10.1016/j.jct.2007.11.001).
Numbers after ± are expanded uncertainties.

Settings: Crystal 2; Adiabatic calorimetry

O=P([O-])([O-])[O-].[Cs+].[Mg+2] [caesium-magnesium monophosphate]
Triple point temperature: 235.69 ± 0.2 K
